Experimental data from PMC8615975, “Design of α/β-Hybrid Peptide Ligands of α4β1 Integrin Equipped with a Linkable Side Chain for Chemoselective Biofunctionalization of Microstructured Materials” (Biomedicines, 2021).
*1 amine or outer side, *2 acyl side, *3 side chain or, on linkers, in order; H or OH if unused. Where a SMILES comes first, the peptide text is derived from it. [ ]: non-standard residue; d: D form. The star is where a group is joined. X1 = O=C(Cc1ccc(N[*:1])cc1)[*:2]; NH(2-Me-phenyl) = Cc1ccccc1N*; CO = O=C([*:1])[*:2]

How the values were obtained:
[1] = set-up: method as in PMID 17523052, PMID 11682211; conditions: heparinized blood, plasma and rat liver, lung and intestinal homogenates; cited from earlier work
[2] = Enzymatic stability in mouse serum; format: in vitro ADME; conditions: 37 °C, HPLC; for amount of intact peptide: after 3 h
Description: Incubations were carried out at 37 °C. Aliquots of 20 µL were sampled over 180 min from the mixtures and the samples were diluted with 90 µL of glacial ACN for precipitating proteins. The mixtures were diluted with 90 µL of 0.5% AcOH and centrifuged (13,000× g, 15 min). The supernatants were collected and the amount of intact peptides was determined by RP HPLC. The experiments were performed in triplicate and repeated three times.

isolated α4β1 integrin = tested on: isolated α4β1 integrin; set-up: method as in PMID 30051467; conditions: read-out: IC50, affinity for the isolated α4β1 integrin; cited from earlier work
[3] = set-up: method as in PMID 30051467; conditions: incubation in mouse serum; cited from earlier work
α4β1 integrin [4] = tested on: α4β1 integrin; set-up: method as in PMID 30051467; conditions: VCAM-1; read-out: IC50, adhesion of α4β1 integrin-expressing cells to VCAM-1; cited from earlier work
α4β1 integrin [5] = biological target: T1, α4β1 integrin (Homo sapiens, UniProt P05556+P13612); test: Inhibition of α4β1 integrin-mediated Jurkat cell adhesion to FN; format: cell-based; conditions: for IC50: Jurkat cell adhesion to plates coated with FN (10 μg/mL), mean ± SD, three experiments in quadruplicate; for ability to modulate α4β1 integrin-mediated cell adhesion (in words): Jurkat cell adhesion to FN
T1 construct: Jurkat E6.1 cells (expressing α4β1) were maintained as a stationary suspension culture; host or cells: Jurkat E6.1
Description: All cell lines were purchased from the ATCC (Rockville, MD, USA). Jurkat E6.1 cells (expressing α4β1) were maintained as a stationary suspension culture in RPMI-1640 (Life Technologies, Carlsbad, CA, USA) supplemented with 2 mM glutamine and 10% FBS (fetal bovine serum). HEK293 cells were routinely cultured in EMEM (Lonza, Basel, Switzerland) enriched with 10% FBS, L-glutamine and nonessential amino acids. Cells were kept at 37 °C under a 5% CO2 humidified atmosphere.
The adhesion assays were performed as previously described. Briefly, black 96-well plates (Corning Costar, Celbio, Milan, Italy) were coated with FN (10 μg/mL). Cells were counted, stained with CellTracker green CMFDA (12.5 μM, 30 min at 37 °C, Life Technologies), and after three washes with 1% BSA (bovine serum albumin) in HBSS (Life Technologies) were preincubated with increasing concentrations of the new peptide ligands (10^−10–10^−4 M) or with the vehicle (methanol) for 30 min at 37 °C. Afterwards, cells were plated (500,000/well) on coated wells and incubated for 30 min at 37 °C. After three washes, adhered cells were lysed with 0.5% Triton X-100 in PBS (30 min at 4 °C) and fluorescence was measured (Ex485 nm/Em535 nm) in an EnSpire Multimode Plate Reader (PerkinElmer, Waltham, MA, USA).
The number of adherent cells was obtained by comparison with a standard curve prepared in the same plate using diverse concentrations of cells. Experiments were carried out in quadruplicate and repeated at least three times. Data analysis and IC50 values were calculated using GraphPad Prism 6.0 (GraphPad Software, San Diego, CA, USA).

T1 sequence (P13612 34-1032): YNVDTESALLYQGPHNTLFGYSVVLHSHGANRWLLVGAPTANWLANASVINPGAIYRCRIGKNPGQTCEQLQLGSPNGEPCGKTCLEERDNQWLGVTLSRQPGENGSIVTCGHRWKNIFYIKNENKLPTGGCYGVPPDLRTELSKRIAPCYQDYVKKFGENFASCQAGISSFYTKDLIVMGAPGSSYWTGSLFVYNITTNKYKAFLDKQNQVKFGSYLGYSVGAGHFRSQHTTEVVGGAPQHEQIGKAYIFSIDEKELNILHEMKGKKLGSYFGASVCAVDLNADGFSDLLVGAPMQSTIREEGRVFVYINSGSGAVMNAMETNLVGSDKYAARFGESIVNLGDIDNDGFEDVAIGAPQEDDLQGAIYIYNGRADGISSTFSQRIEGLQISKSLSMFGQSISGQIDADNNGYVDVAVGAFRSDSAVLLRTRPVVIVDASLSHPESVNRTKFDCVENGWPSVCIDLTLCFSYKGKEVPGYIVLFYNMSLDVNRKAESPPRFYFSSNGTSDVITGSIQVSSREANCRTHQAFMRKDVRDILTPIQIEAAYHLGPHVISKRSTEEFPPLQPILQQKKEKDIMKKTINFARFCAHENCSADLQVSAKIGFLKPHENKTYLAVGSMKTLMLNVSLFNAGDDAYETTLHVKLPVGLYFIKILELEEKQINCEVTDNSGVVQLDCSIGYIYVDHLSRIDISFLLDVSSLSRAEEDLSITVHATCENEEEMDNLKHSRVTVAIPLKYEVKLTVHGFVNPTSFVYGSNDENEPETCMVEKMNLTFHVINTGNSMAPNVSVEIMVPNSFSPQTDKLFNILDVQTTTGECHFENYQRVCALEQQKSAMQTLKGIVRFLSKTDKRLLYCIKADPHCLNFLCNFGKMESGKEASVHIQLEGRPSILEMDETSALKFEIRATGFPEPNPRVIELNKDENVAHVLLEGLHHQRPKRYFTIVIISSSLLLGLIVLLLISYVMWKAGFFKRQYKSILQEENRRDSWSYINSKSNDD
T1 sequence (P05556 21-798): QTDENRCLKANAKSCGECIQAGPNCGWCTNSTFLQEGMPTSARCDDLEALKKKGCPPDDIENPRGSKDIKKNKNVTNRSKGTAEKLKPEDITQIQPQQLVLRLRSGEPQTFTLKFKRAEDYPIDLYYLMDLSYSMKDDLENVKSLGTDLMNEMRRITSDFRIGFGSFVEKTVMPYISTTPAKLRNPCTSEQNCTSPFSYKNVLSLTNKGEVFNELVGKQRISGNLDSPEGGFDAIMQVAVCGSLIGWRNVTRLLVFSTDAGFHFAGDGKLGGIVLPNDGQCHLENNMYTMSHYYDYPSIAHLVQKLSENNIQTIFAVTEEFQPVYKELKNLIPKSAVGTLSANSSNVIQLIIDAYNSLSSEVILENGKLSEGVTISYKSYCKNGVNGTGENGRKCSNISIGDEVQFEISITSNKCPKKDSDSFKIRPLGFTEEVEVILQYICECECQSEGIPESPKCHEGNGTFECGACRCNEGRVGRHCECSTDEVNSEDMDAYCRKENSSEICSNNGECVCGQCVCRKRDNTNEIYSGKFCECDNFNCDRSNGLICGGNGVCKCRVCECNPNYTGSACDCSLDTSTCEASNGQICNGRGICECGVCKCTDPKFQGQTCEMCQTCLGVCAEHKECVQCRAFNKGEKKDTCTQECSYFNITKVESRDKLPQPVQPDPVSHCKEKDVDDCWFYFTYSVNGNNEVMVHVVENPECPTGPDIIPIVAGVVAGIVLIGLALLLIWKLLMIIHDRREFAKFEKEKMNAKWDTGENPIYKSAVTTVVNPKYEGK

SMILES	IC50 (α4β1 integrin [5]) [nM]	ability to modulate α4β1 integrin-mediated cell adhesion (in words) (α4β1 integrin [5])	further results
Cc1ccccc1NC(=O)Nc1ccc(CC(=O)N[C@@H](CC(C)C)C(=O)N[C@@H](CC(=O)O)C(=O)N[C@H](C(=O)N2CCC[C@H]2C(=O)O)C(C)C)cc1 [BIO1211, MPUPA-Leu-Asp-Val-Pro-OH, reference compound] ({NH(2-Me-phenyl)-CO}-[X1]LDVP-OH)			stability in physiological conditions (in words) [1]: poor stability; initial amount still present ([2]; after 1 h): about 10%
Cc1ccccc1NC(=O)Nc1ccc(CC(=O)N2CC[C@H](C(=O)NCC(=O)O)C2)cc1 [Compound 6]			IC50 (isolated α4β1 integrin): 8.3 nM; enzymatic stability (in words) [3]: good enzymatic stability; IC50 (α4β1 integrin [4]): 5.04 nM
Cc1ccccc1NC(=O)Nc1ccc(CC(=O)NC[C@H](C)C(=O)NCC(=O)O)cc1 [Compound 9, MPUPA-β^2-homoAla-Gly-OH]	> 5000	not able to modulate α4β1 integrin-mediated cell adhesion to a significant extent	
Cc1ccccc1NC(=O)Nc1ccc(CC(=O)NC[C@@H](C)C(=O)NCC(=O)O)cc1 [Compound 10, MPUPA-β^2-homoAla-Gly-OH]	> 5000	not able to modulate α4β1 integrin-mediated cell adhesion to a significant extent	
CCCNC(=O)[C@H](CC(=O)NCC(=O)O)NC(=O)Cc1ccc(NC(=O)Nc2ccccc2C)cc1 [Compound 11, MPUPA-isoAsp(NHPr)-Gly-OH]	> 5000		
CC(=O)N[C@H](CNC(=O)Cc1ccc(NC(=O)Nc2ccccc2C)cc1)C(=O)NCC(=O)O [Compound 14, MPUPA-Dap(Ac)-Gly-OH]	> 5000	inactive	

The next lines start with results.

IC50 (α4β1 integrin [5]) [nM]	SMILES	ability to modulate α4β1 integrin-mediated cell adhesion (in words) (α4β1 integrin [5])	further results
4060 ± 780	Cc1ccccc1NC(=O)Nc1ccc(CC(=O)N[C@@H](C)CC(=O)NCC(=O)O)cc1 [Compound 7, MPUPA-β^3-homoAla-Gly-OH]		
> 5000	Cc1ccccc1NC(=O)Nc1ccc(CC(=O)N[C@H](C)CC(=O)NCC(=O)O)cc1 [Compound 8, MPUPA-β^3-homoAla-Gly-OH]		
9.8 ± 2.1	CCCNC(=O)[C@@H](CC(=O)NCC(=O)O)NC(=O)Cc1ccc(NC(=O)Nc2ccccc2C)cc1 [Compound 12, MPUPA-(R)-isoAsp(NHPr)-Gly-OH]		amount of intact peptide [2]: around 80%
236 ± 47	CC(=O)N[C@@H](CNC(=O)Cc1ccc(NC(=O)Nc2ccccc2C)cc1)C(=O)NCC(=O)O [Compound 13, MPUPA-(S)-Dap(Ac)-Gly-OH]	submicromolar range	amount of intact peptide [2]: ~91%
